Results on 21 compounds are retold here after patent US20110319392A1, “Thiazole Sulfonamide And Oxazole Sulfonamide Kinase Inhibitors” (priority 2009, published 2011).

For test [1], the target named is T1, EGFR (Homo sapiens, UniProt P00533).
T1 construct: made in house; host or cells: baculovirus expression system
As to the kind of experiment: EGFR substrate phosphorylation assay (HTRF). The format is biochemical. The procedure, abridged:
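Baculovirus-expressed EGFR (0.8 nM) or ErbB2 (10 nM) in enzyme mix, preincubated 1 h at 20 °C with compound (0.00027–47.6 μM final), then 90 min at 20 °C with substrate mix of 20 μM ATP, 0.8 uM biotinylated Peptide C, MnCl2, MOPS pH 7.5. Phosphotyrosine by HTRF; pIC50 reported.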

Test [2] has as its system HT-29 tumor cells. As to the kind of experiment: Cell growth inhibition assay (CellTiter-Glo), HT-29. In kind it is cell-based, Human. The following applies: Homo sapiens. The gist of the method: (§1)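 Cells seeded at 500/well (HN5 and HT-29 in high-glucose DMEM/10% FBS; A375P F11s in RPMI/10% FBS with pyruvate; SK-MEL-3 in McCoy's 5A/15% FBS), then exposed next day to 1:3 serial compound dilutions (0.2% DMSO) for 3 days at 37° C. CellTiter-Glo luminescence measured ATP; IC50 derived by 4-parameter fit.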

Test [3] relates to BT474 tumor cells. As to the kind of experiment: Cell growth inhibition assay (CellTiter-Glo), BT474. The format is cell-based, Human. The following applies: Homo sapiens, BT-474, 72 h, 3 days incubation.
Test [4] concerns HN5 tumor cells. As to the kind of experiment: Cell growth inhibition assay (CellTiter-Glo), HN5. The format is cell-based, Human. The following applies: Homo sapiens, 72 h; 3 days incubation. The procedure, abridged: as §1

T1 sequence (P00533 25-1210): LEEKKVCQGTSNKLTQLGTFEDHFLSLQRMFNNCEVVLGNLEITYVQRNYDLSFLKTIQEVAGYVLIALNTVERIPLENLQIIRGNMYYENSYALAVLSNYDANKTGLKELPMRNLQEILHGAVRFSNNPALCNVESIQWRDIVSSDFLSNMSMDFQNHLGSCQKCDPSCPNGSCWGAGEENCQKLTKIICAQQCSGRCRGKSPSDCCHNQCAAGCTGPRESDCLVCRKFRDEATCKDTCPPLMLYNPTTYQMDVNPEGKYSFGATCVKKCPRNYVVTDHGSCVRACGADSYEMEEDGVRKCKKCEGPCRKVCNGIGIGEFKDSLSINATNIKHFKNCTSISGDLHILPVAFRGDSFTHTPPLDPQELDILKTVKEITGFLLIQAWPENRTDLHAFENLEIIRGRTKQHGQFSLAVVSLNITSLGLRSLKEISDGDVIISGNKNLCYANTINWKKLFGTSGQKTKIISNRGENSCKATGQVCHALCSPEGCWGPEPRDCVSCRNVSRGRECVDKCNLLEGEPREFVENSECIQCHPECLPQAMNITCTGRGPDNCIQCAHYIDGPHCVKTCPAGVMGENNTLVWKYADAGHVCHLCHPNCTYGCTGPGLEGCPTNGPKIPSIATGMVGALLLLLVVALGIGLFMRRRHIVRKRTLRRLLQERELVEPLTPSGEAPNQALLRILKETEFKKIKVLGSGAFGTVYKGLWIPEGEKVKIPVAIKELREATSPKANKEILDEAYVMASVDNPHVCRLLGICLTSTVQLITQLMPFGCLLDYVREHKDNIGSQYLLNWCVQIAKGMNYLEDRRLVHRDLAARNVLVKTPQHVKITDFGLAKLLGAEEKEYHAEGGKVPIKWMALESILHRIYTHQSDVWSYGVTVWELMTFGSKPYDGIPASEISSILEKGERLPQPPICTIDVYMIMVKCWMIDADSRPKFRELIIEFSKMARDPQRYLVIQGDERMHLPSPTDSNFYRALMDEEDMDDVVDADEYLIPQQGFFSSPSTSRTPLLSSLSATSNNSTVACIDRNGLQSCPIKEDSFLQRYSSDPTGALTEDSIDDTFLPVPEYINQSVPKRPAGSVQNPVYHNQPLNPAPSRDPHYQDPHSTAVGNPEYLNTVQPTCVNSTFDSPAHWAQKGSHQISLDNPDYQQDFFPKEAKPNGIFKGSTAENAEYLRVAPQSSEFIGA

Regarding `COc1cc(N2CCN(CCS(C)(=O)=O)CC2)c(C)cc1Nc1nccc(-c2sc(C(C)(C)C)nc2-c2cccc(NS(=O)(=O)c3c(F)cccc3F)c2)n1` [Example 120], the half-maximal inhibitory concentration (IC50) is above 1000 nM in test [1], 100 to 1000 nM in test [2], above 1000 nM in test [3] and above 1000 nM in test [4].
Turning to `O=S(=O)(Nc1cc(-c2nc(N3CCOCC3)sc2-c2ccnc(Nc3ccc(N4CCOCC4)nc3)n2)ccc1F)c1c(F)cccc1F` [Example 121], the half-maximal inhibitory concentration (IC50) in test [1] was 100 to 1000 nM; in test [2], 100 to 1000 nM; in test [3] it was above 1000 nM; in test [4], 100 to 1000 nM.
On to `O=S(=O)(Nc1cccc(-c2nc(N3CCOCC3)sc2-c2ccnc(Nc3ccc(N4CCOCC4)nc3)n2)c1F)c1c(F)cccc1F` [Example 122], for which the 50% inhibitory concentration (IC50) was 100 to 1000 nM in test [1], below 100 nM in test [2], above 1000 nM in test [3] and 100 to 1000 nM in test [4].
As for `CC(C)c1nc(-c2cccc(NS(=O)(=O)c3c(F)cccc3F)c2F)c(-c2ccnc(Nc3ccc(N4CCOCC4)nc3)n2)s1` [Example 123], the IC50 in test [1] is above 1000 nM; in test [2], below 100 nM; in test [3], above 1000 nM; in test [4], 100 to 1000 nM.
As to `Cc1cc(N2CCOCC2)ncc1Nc1nccc(-c2sc(N3CCCC3)nc2-c2cccc(NS(=O)(=O)c3c(F)cccc3F)c2)n1` [Example 124], the IC50 in test [1], in test [2], in test [3] and in test [4] was above 1000 nM in each case.
As to `CN1CCN(c2nc(-c3ccc(F)c(NS(=O)(=O)c4c(F)cccc4F)c3)c(-c3ccnc(Nc4ccc(N5CCOCC5)nc4)n3)s2)CC1` [Example 126], the half-inhibitory concentration (IC50) was 100 to 1000 nM in test [1], 100 to 1000 nM in test [2], above 1000 nM in test [3] and 100 to 1000 nM in test [4].
For `O=S(=O)(Nc1cc(-c2nc(N3CCOCC3)sc2-c2ccnc(Nc3ccc4c(c3)OCCO4)n2)ccc1F)c1c(F)cccc1F` [Example 127], the IC50 in test [1] was 100 to 1000 nM; in test [2], above 1000 nM; in test [3], above 1000 nM; in test [4], above 1000 nM.
Take `COc1cc(N2CCN(CCS(C)(=O)=O)CC2)c(C)cc1Nc1nccc(-c2sc(N3CCOCC3)nc2-c2cccc(NS(=O)(=O)c3c(F)cccc3F)c2)n1` [Example 128]: the IC50 in test [1] is below 100 nM; in test [2] it was below 100 nM; in test [3], 100 to 1000 nM; in test [4] it was 100 to 1000 nM.
`CS(=O)(=O)c1cccc(Nc2nccc(-c3sc(N4CCOCC4)nc3-c3cccc(NS(=O)(=O)c4c(F)cccc4F)c3F)n2)c1` [Example 130]: the concentration for half-maximal inhibition (IC50) in test [1] is above 1000 nM; in test [2], below 100 nM; in test [3], above 1000 nM; in test [4] it was 100 to 1000 nM.
`Cc1cc(N2CCN(CCS(C)(=O)=O)CC2)ncc1Nc1nccc(-c2sc(C(C)C)nc2-c2cccc(NS(=O)(=O)c3c(F)cccc3F)c2)n1` [Example 131]: the IC50 is above 1000 nM in test [1], below 100 nM in test [2], above 1000 nM in test [3] and above 1000 nM in test [4].
As for `Cc1nc(-c2cccc(NS(=O)(=O)c3c(F)cccc3F)c2)c(-c2ccnc(Nc3ccc(N4CCOCC4)nc3)n2)s1` [Example 133], the IC50 in test [1] was above 1000 nM; in test [2] it was below 100 nM; in test [3], above 1000 nM; in test [4], 100 to 1000 nM.
In the case of `CS(=O)(=O)c1cccc(Nc2nccc(-c3sc(N4CCOCC4)nc3-c3cccc(NS(=O)(=O)c4c(F)cccc4F)c3Cl)n2)c1` [Example 145], the IC50 was above 1000 nM in test [1], below 100 nM in test [2], above 1000 nM in test [3] and above 1000 nM in test [4].
Consider `O=S(=O)(Nc1cccc(-c2nc(N3CCOCC3)sc2-c2ccnc(Nc3ccc(N4CCOCC4)nc3)n2)c1Cl)c1c(F)cccc1F` [Example 146], for which the concentration for half-maximal inhibition (IC50) was above 1000 nM in test [1], below 100 nM in test [2], above 1000 nM in test [3] and below 100 nM in test [4].
In the case of `O=S(=O)(Nc1cccc(-c2nc(N3CCCCC3)sc2-c2ccnc(Nc3ccc(N4CCOCC4)nc3)n2)c1)c1c(F)cccc1F` [Example 151], the IC50 in test [1] was above 1000 nM; in test [2], below 100 nM; in test [3], above 1000 nM; in test [4] it was 100 to 1000 nM.
`CCNc1nc(-c2cccc(NS(=O)(=O)c3c(F)cccc3F)c2)c(-c2ccnc(Nc3ccc(N4CCOCC4)nc3)n2)s1` [Example 152]: the concentration for half-maximal inhibition (IC50) in test [1] is 100 to 1000 nM; in test [2], below 100 nM; in test [3] it was 100 to 1000 nM; in test [4], 100 to 1000 nM.
For the compound `O=S1(=O)Cc2ccc(Nc3nccc(-c4sc(N5CCOCC5)nc4-c4cccc(NS(=O)(=O)c5c(F)cccc5F)c4F)n3)cc2C1` [Example 155], the IC50 in test [1] is 100 to 1000 nM; in test [2], below 100 nM; in test [3], above 1000 nM; in test [4] it was 100 to 1000 nM.
Take `COc1ccc(S(C)(=O)=O)cc1Nc1nccc(-c2sc(N3CCOCC3)nc2-c2cccc(NS(=O)(=O)c3c(F)cccc3F)c2F)n1` [Example 157]: the IC50 was above 1000 nM in test [1], below 100 nM in test [2], above 1000 nM in test [3] and above 1000 nM in test [4].
Turning to `Cc1cc(Nc2nccc(-c3sc(C(C)(C)C)nc3-c3cccc(NS(=O)(=O)c4c(F)cccc4F)c3F)n2)ccn1` [Example 159], the half-inhibitory concentration (IC50) in test [1] was above 1000 nM; in test [2] it was below 100 nM; in test [3] it was above 1000 nM; in test [4], below 100 nM.
With `O=S(=O)(Nc1cccc(-c2ncsc2-c2ccnc(Nc3ccc(N4CCOCC4)nc3)n2)c1)c1c(F)cccc1F` [Example 162], the IC50 in test [1] was 100 to 1000 nM; in test [2], 100 to 1000 nM; in test [3] it was above 1000 nM; in test [4] it was 100 to 1000 nM.
For the compound `CCNc1nc(-c2ccc(F)c(NS(=O)(=O)c3c(F)cccc3F)c2)c(-c2ccnc(Nc3ccc(N4CCOCC4)nc3)n2)s1` [Example 166], the IC50 was 100 to 1000 nM in test [1], 100 to 1000 nM in test [2], above 1000 nM in test [3] and 100 to 1000 nM in test [4].
Take `CS(=O)(=O)CCN1CCN(c2ccc(Nc3nccc(-c4oc(N5CCCC5)nc4-c4cccc(NS(=O)(=O)c5c(F)cccc5F)c4F)n3)cc2F)CC1` [Example 167]: the IC50 in test [1] was 100 to 1000 nM; in test [2], below 100 nM; in test [3] it was above 1000 nM; in test [4], 100 to 1000 nM.
